Assay type in all cases: in vivo, human
The subject of assay [1] is panelists. Nature of the assay: Panel taste test: concentration with cooling intensity similar or slightly higher than menthol at 2 ppm (Table 1). The settings on record: solution judged to have cooling intensity similar or slightly higher than menthol at 2 ppm; tasted by small panel.
The subject of assay [2] is panelists. Nature of the assay: Panel taste test: longevity of cooling in the mouth (Table 1). The settings on record: solutions tasted at the chosen concentration; time until no cooling could be sensed in the mouth. An excerpt:
In a second experiment, the same panel was asked to taste the solutions at the chosen concentrations and to record the cooling intensity at regular time intervals until no cooling could be sensed in the mouth.

Another assay concerns mouth. Nature of the assay: Application in toothpaste. The settings on record: toothgel with 2.5 g per 100 g of a 2% solution in PG; teeth brushed, mouth rinsed with water. The source says: [table] The materials are mixed in the toothgel, and a panelist's teeth are brushed using this toothgel. The mouth is rinsed with water and the water spit out. […] The cooling perception lasts for several hours.

Assay [3] relates to panelists. Nature of the assay: Testing of compounds: panel tasting of aqueous solutions against menthol at 2 ppm (Table 2). The settings on record: for Concentration [ppm]: aqueous solution (compound dissolved in ethanol at 1% by weight, then dosed into water), cooling intensity similar to or slightly higher than menthol at 2 ppm; for Description: panel description of the aqueous solution at the concentration listed in Table 2, reference menthol 2 ppm. The source says: A small group of panelists were asked to taste various aqueous solutions of compounds. The compounds were first dissolved in ethanol at 1% by weight and then dosed into water.

Each structure is given as a SMILES string.

For `CC1CCC(C(C)C)C(C(=O)Nc2ccc(CC#N)cc2)C1` (centres unmarked) [Example 1, N-(4-cyanomethylphenyl) p-menthanecarboxamide], the Concentration with panelists [1] was 0.2 ppm. Also, the Longevity with panelists [2] is 93 min.

Regarding `CC(C)[C@@H]1CC[C@@H](C)C[C@H]1O` [Example 1-Menthol, (1R, 2S, 5R)-2-isopropyl-5-methyl-cyclohexanol, reference compound], the Concentration with panelists [1] is 2.0 ppm. The Longevity in the assay with panelists [2] is 35 min.

`CC1CCC(C(C)C)C(C(=O)Nc2ccc(S(N)(=O)=O)cc2)C1` (centres unmarked) [Example 2, N-(4-sulfamoylphenyl) p-menthanecarboxamide]: in the assay with mouth, the “Cooling sensation felt in the mouth” value is recorded as “intense cooling sensation” and the “Duration of cooling perception” value is on record as “several hours”.

With `CC1CCC(C(C)C)C(C(=O)Nc2ccc(C#N)cc2)C1` (centres unmarked) [Example 3, N-(4-cyanophenyl) p-menthanecarboxamide], in the assay with panelists [1], the Concentration is listed as 0.5 ppm. Moreover, in the assay on panelists [2], the Longevity was 90 min.

In the case of `CC(C)Oc1ccc(CNC(=O)[C@@H]2C[C@H](C)CC[C@H]2C(C)C)cc1` [Example 7, (1R,2S,5R)-N-(4-isopropoxybenzyl)-2-isopropyl-5-methylcyclohexanecarboxamide], the “Concentration [ppm]” value in the assay on panelists [3] is 0.01 ppm.

For the compound `COC(=O)c1ccc(NC(=O)[C@@H]2C[C@H](C)CC[C@H]2C(C)C)cc1OC` [Example 9, methyl 4-((1R,2S,5R)-2-isopropyl-5-methylcyclohexane-carboxamido)-2-methoxybenzoate], the “Concentration [ppm]” value in the assay with panelists [3] is given as 0.005 ppm.

Consider `COC(=O)c1ccc(NC(=O)[C@@H]2C[C@H](C)CC[C@H]2C(C)C)cc1` [Example 15, methyl 4-((1R,2S,5R)-2-isopropyl-5-methylcyclohexane-carboxamido)benzoate], for which, in the assay on panelists [3], the “Concentration [ppm]” value is on record as 2 ppm and the Description result was “slightly cooling, flat cooling”.

Consider `CCOC(=O)c1ccc(NC(=O)[C@@H]2C[C@H](C)CC[C@H]2C(C)C)cc1` [Example 16, ethyl 4-((1R,2S,5R)-2-isopropyl-5-methylcyclohexane-carboxamido)benzoate], for which, in the assay on panelists [3], the “Concentration [ppm]” value stood at 2 ppm and the Description result is “Cooling similar to menthol”.

`CC(C)[C@@H]1CC[C@@H](C)C[C@H]1C(=O)Nc1ccc(C=O)cc1` [Example 19, (1R,2S,5R)-N-(4-formylphenyl)-2-isopropyl-5-methylcyclo-hexanecarboxamide]: in the assay on panelists [3], the “Concentration [ppm]” value came out at 2 ppm; the Description entry is “cooling builds and lingers”.

Regarding `CC(C)[C@@H]1CC[C@@H](C)C[C@H]1C(=O)Nc1ccc(C(=O)O)cc1` [Example 23, 4-((1R,2S,5R)-2-isopropyl-5-methylcyclohexane-carboxamido)benzoic acid], in the assay on panelists [3], the “Concentration [ppm]” value turned out to be 2 ppm and the Description result is “slightly burning then cooling”.

For the compound `CC(C)[C@@H]1CC[C@@H](C)C[C@H]1C(=O)NCc1ccc(C(=O)O)cc1` [Example 24, 4-(((1R,2S,5R)-2-isopropyl-5-methylcyclohexane-carboxamido)methyl)benzoic acid], in the assay on panelists [3], the “Concentration [ppm]” value amounted to 2 ppm and the Description entry was “little cooling, slightly refreshing”.

On to `CC(C)[C@@H]1CC[C@@H](C)C[C@H]1C(=O)NCc1ccc(C#N)cc1` [Example 25, (1R,2S,5R)-N-(4-cyanobenzyl)-2-isopropyl-5-methylcyclohexanecarboxamide], for which, in the assay with panelists [3], the “Concentration [ppm]” value was found to be 2 ppm and the Description entry is “good icy cooling, slightly astringent”.

`CC(C)[C@@H]1CC[C@@H](C)C[C@H]1C(=O)NCc1ccc(S(N)(=O)=O)cc1` [Example 27, (1R,2S,5R)-2-isopropyl-5-methyl-N-(4-sulfamoylbenzyl)-cyclohexanecarboxamide]: the “Concentration [ppm]” value in the assay on panelists [3] was determined as 2 ppm.

Take `CC(C)[C@@H]1CC[C@@H](C)C[C@H]1C(=O)NCc1ccc(C(=O)O)cc1` [Example 28, 4-(((1R,2S,5R)-2-isopropyl-5-methyl-cyclohexanecarboxamido)-methyl)benzoic acid]: in the assay with panelists [3], the “Concentration [ppm]” value is 2 ppm and the Description entry is recorded as “strong cooling up front, peppery heat”.

Take `CCOC(=O)Cc1ccc(NC(=O)[C@@H]2C[C@H](C)CC[C@H]2C(C)C)cc1` [Example 29, ethyl 2-(4-((1R,2S,5R)-2-isopropyl-5-methylcyclohexane-carboxamido)phenyl)acetate]: in the assay with panelists [3], the “Concentration [ppm]” value worked out at 2 ppm and the Description entry is “icy, crisp cool on tongue”.

On to `CC(C)[C@@H]1CC[C@@H](C)C[C@H]1C(=O)Nc1ccccc1C#N` [Example 30, (1R,2S,5R)-N-(2-cyanophenyl)-2-isopropyl-5-methylcyclohexane-carboxamide], for which, in the assay on panelists [3], the “Concentration [ppm]” value amounted to 2 ppm and the Description entry was “clean, slightly stronger than menthol”.

As to `CC(C)[C@@H]1CC[C@@H](C)CC1C(=O)Nc1cccc(C#N)c1` (stereo partly drawn) [Example 31, (2S,5R)-N-(3-cyanophenyl)-2-isopropyl-5-methylcyclohexane-carboxamide], in the assay with panelists [3], the “Concentration [ppm]” value is recorded as 1 ppm and the Description result is recorded as “weak cooling, tingling, numbing on tongue,”.

In the case of `CC(C)[C@@H]1CC[C@@H](C)C[C@H]1C(=O)Nc1ccccc1C#N` [Example 32], in the assay with panelists [3], the “Concentration [ppm]” value was 2 ppm and the Description result is “mouthcoating, more cooling than menthol”.

Regarding `CCNC(=O)C1CC(C)CCC1C(C)C` (centres unmarked) [N-ethyl p-menthanecarboxamide (WS-3), N-ethyl p-menthanecarboxamide, reference compound], the Concentration in the assay on panelists [1] amounted to 1.5 ppm. In the assay with panelists [2], this compound came in with a Longevity of 57 min.

These data come from patent US20080300314A1, “Cooling Compounds” (Givaudan SA, priority 2003, published 2008).
